Experiments:
Type in all cases: cell-based, human
MMP-9 = assay: mRNA expression by RT-PCR in SW620 cells; details: SW620, 10 μM, 24 hours post-seeding
Procedure: (§1) SW620 cells were cultured in the absence or presence of N7 before extraction for total RNA using RNeasy Mini Kit (Qiagen) according to the manufacturer's instructions. RT was carried out with oligo(dT) and 2-4 μg of total RNA using Superscript II Reverse Transcriptase (Invitrogen). PCR was performed in a RoboCycler 96 (Stratagene, La Jolla, CA, USA) with specific primers for human nucleolin (referred to as NCL) 5'-[…]-3' and 5'-[…]-3' (835 bp); glyceraldehyde-3-phosphate dehydrogenase (GAPDH) 5'-TGAAGG-[…]-3' and 5'-[…]-CCAC-3' (983 bp); nucleophosmin (NPM or B23) 5'-[…]-3' and 5'-[…]-3' (320 bp); matrix metalloproteinase-2 (MMP-2) 5'-[…]-3' and 5'-[…]-3' (580 bp); matrix metalloproteinase-9 (MMP-9) 5'-[…] TCAGAGC-3' and 5'-[…]-3' (243 bp); tissue inhibitor of metalloproteinase 1 (TIMP-1) 5'-[…]-3' and 5'-[…]-3' (667 bp); tissue inhibitor of metalloproteinase 2 (TIMP-2) 5'-[…]-3' and 5'-[…]-3' (405 bp). PCR amplification conditions were: 95°C for 5 min, 30 cycles at 95°C for 30 sec, 60°C for 30 sec and 72°C for 45 sec, and 72°C for 5 min (for NCL and GAPDH), 95°C for 5 min, 30 cycles at 95°C for 30 sec, 53°C for 30 sec and 72°C for 30 sec, and 72°C for 5 min (for NPM); 95°C for 5 min, 35 cycles at 95°C for 45 sec, 56°C for 45 sec and 72°C for 45 sec, and 72°C for 5 min (for MMP2 and MMP9); 95°C for 5 min, 30 cycles at 95°C for 45 sec, 59°C for 1 min and 72°C for 1 min 30 sec, and 72°C for 5 min (for TIMP1 and TIMP2).
(§2) Figure 6 Selective down regulation of MMP-9 and nucleolin transcripts in Nucant treated SW620 cells. A. SW620 cells in the absence (lanes -) and presence (lanes +) of 10 μM of N7 were cultured for 24, 48, and 72 hours. B. Dose dependent reduction of MMP-9 and nucleolin transcripts in response to Nucant treatment. Newly seeded SW620 cells were cultured in the absence (lanes 1) and presence of 2.5 (lanes 2), 5 (lanes 3) and 10 (lanes 4) […] of N6 for 20 hours. Total RNA extracts were prepared at different time points and the expression of various transcripts was analyzed by RT-PCR using specific primers (Methods). […]

nucleolin = assay: mRNA expression by RT-PCR in SW620 cells; details: SW620, 10 μM, 24, 48 and 72 hours
Procedure: as §1, §2

nucleophosmin = assay: mRNA expression by RT-PCR in SW620 cells; details: SW620, 10 μM, 24, 48 and 72 hours
Procedure: as §1, §2

MDA-MB-435 = assay: Cell adhesion to plastic culture flask; details: MDA-MB-435, 10 μM, adherent cells counted after 16 hours of culture
Description: (§3) A. Inhibition of Cell adhesion by N6. […] C. The effect of Nucant treatment on cell proliferation. […] The ordinates give the mean ± SD of triplicate samples. Statistical significance: **p < 0.01, ***p < 0.001.

LNCaP = assay: Cell adhesion to plastic culture flask; details: 10 μM, adherent cells counted after 16 hours of culture
Description: as §3

MDA-MB-231 = assay: Cell adhesion to plastic culture flask; details: MDA-MB-231, 10 μM, adherent cells counted after 16 hours of culture
Description: as §3

| Substance | expression of MMP-9 transcripts (MMP-9) | transcripts coding nucleolin (nucleolin) | expression of transcripts coding nucleophosmin (nucleophosmin) | degree of adhesion inhibition (MDA-MB-435) [%] | degree of adhesion inhibition (LNCaP) [%] | degree of adhesion inhibition (MDA-MB-231) [%] |
| --- | --- | --- | --- | --- | --- | --- |
| Ac-KAKPGKAKPGKAKPG-NH2 [Nucant N7, Presents hexavalently the pseudo-tripeptide Lysψ(CH2N)-Pro-Arg coupled to a similar template as in HB-19] | completely abolished | marked down regulation | not affected |  |  |  |
| Ac-Lys-Aib-Gly-Lys-Aib-Gly-Lys-Aib-Gly-Lys-Aib-Gly-Lys-Aib-Gly-Lys-Aib-Gly-CONH2 [Nucant N6, Presents hexavalently the pseudo-tripeptide Lysψ(CH2N)-Pro-Arg coupled to the polypeptide template containing Aib] |  |  |  | 41 | 66 | 58 |

From PMC3199867, “Targeting surface nucleolin with multivalent HB-19 and related Nucant pseudopeptides results in distinct inhibitory mechanisms depending on the malignant tumor cell type” (BMC Cancer, 2011)
